Measured values reported in patent US20110034407A1, “USE OF SPHINGOMYELIN AND NON-DIGESTIBLE CARBOHYDRATES FOR IMPROVING INTESTINAL MICROBIOTA” (N. V. Nutricia, priority 2007, published 2011).

Assays:
Bifidobacteria = assay: Faecal fermentation in dialysis tubes, FISH with Bifl 64 probe; type: cell-based; settings: t = 72 h versus t = 0
Description: (§1) Pooled fresh faeces obtained from 4-5 healthy adults was used to perform fermentation studies as described in Appendix I of WO 2004/000340. The experiments were performed in duplo. The faeces, diluted 1:5 into McBain and Farlane medium, was put into dialysis tubes and suspended in bottles with buffer under anaerobic conditions and was first incubated at 37° C. for 16 h for reasons of adaptation before inoculating them with the substrates according to the table below at t=0.
(§2) The test substrates were added once a day (at t=0, 24, and 48 hours). Buffer was refreshed once a day. A sample was taken at t=0 and t=72. This relatively long period was used since shifts in bacterial populations are relatively slow compared to the shifts in short chain acids formed.
(§3) The sphingosine was dissolved in ethanol (stock 10 mg/ml). 30 μl of a stock of 10 mg/ml was added to the dialysis tube.
(§4) The samples were analysed by Fluorescence In Situ Hybridisation (FISH) as described in Franks, A. H., et al., Appl. Environ. Microbiol., 1998. 64(9): p. […] Total number of bacteria was determined by DAPI staining. The ratio Firmicutes/Bacteroidetes was set at the percentage of bacteria detected by the Chis150, Clit135, Erec482 and Lab158 probe, divided by the percentage of bacteria […] by the Bac303 probe. The bacteria detected by the Erec482 group are usually the largest group of Firmicutes in the human intestine.

[1] = test system: Eubacterium rectale and Clostridium coccoides group; assay: Faecal fermentation in dialysis tubes, FISH with Erec482 probe; type: cell-based; settings: t = 72 h versus t = 0
Description: as §1, §2, §3, §4

In the case of `CCCCCCCCCCCCC/C=C/[C@@H](O)[C@@H](N)CO` [Number 1, D-sphingosine], the “change in bifidobacteria (in words)” value (Bifidobacteria) is reported as “increase” and the “change in Clostridia and Eubacteria, largest group of intestinal Firmicutes (in words)” value [1] is reported as “decrease”.
